In patent US20150299233A1, “COMPOSITIONS AND METHODS COMPRISING RHENIUM FOR THE TREATMENT OF CANCERS” (Massachusetts Institute of Technology, priority 2014, published 2015):
Where two headings read alike, the source gives them in different places.

Columns and labels:
A549 cells [1] = test: Propidium iodide uptake, flow cytometry; type: cell-based, human; conditions: for PI uptake versus untreated control cells: 20 μM for 12 h; for effect of N-acetylcysteine pretreatment on induced PI uptake: N-acetylcysteine 3 mM for 1 h; for effect of necrostatin-1 on mediated PI uptake: necrostatin-1 60 μM
Description: Intracellular ROS production and mitochondrial membrane depletion contribute to necroptosis. Cells undergoing necroptosis display necrosis-like morphological features such as loss of cell membrane integrity, increase in organelle and cell volume (oncosis), and intact nuclear membrane. To further test whether 1- and 2-treatment can trigger necroptosis, Hoechst 33258/propidium iodide (PI) double staining was carried out to determine nuclear membrane morphology and integrity. Hoechst 33258 is a DNA minor groove binder that is routinely used to visualize the nucleus without the need for cell permeabilization. When used without cell permeabilization agents, PI stains the nuclei of necrotic cells. Early-stage apoptotic and normal cells maintain cell membrane integrity and thus are not stained by PI. A549 cells were treated with 1 and 2 (20 μM for 12 h), incubated with Hoechst 33258 and PI, and imaged using a fluorescence microscope.
Propidium Iodide Uptake. Untreated and treated A549 cells (1.5×10^6 cells/well) grown in six-well plates were washed with PBS (1 mL×3), harvested, incubated with PI (5 μM), and analyzed by using the FACSCalibur-HTS flow cytometer (BD Biosciences) (20 000 events per sample were acquired). The FL2 channel was used to assess intracellular PI uptake. Cell populations were analyzed using the FlowJo software (Tree Star).

[2] = system: MEFs PARP-1+/+ and MEFs PARP-1−/− cells; test: Cytotoxicity in MEFs PARP-1+/+ versus PARP-1-/- cells; type: cell-based, mouse; conditions: 72 h, FIG. 3A
Description: (PARP-1). PARP-1 is a nuclear enzyme that is involved in DNA repair and transcriptional regulation. DNA damage can trigger PARP-1 activity, resulting in ATP and NAD depletion and bioenergetics- mediated cell death. To determine whether PARP-1 activity is a factor in 1- and 2-mediated cell death, cytotoxicity assays were conducted with wild-type mouse embryonic fibroblast cells (MEFs PARP-1+/+) and the corresponding PARP-1-null cells (MEFs PARP-1−/−). […] Recently, p53 has also been reported to play a role in necroptosis. p53 induces cathepsin Q, a lysosomal protease that cooperates with ROS to execute necrosis. To investigate whether p53 might play a role in 1- and 2-mediated necroptosis, cytotoxicity studies were conducted with HCT116 p53^+/+ nd HCT116 p53^−/− cells.
Cell Cycle Analysis. To gain a more complete understanding of the cellular response evoked, DNA-flow cytometric studies were conducted to determine the effect of 1 and 2 on the cell cycle. A549 cells were treated with 1 or 2 (2 μM), and the cell cycle was determined over the course of 72 h. […] Upon further incubation (72 h), large populations of cell debris were detected (32%), indicative of cell death. […]
Cytotoxicity MTT Assay. […] The absorbance of the solution wells was read at 550 nm. Absorbance values were normalized to DMSO-containing control wells and plotted as the concentration of test compound versus % cell viability. […]

PC-3 = test: Cytotoxicity in the presence of necrostatin-1, PC-3 cells; type: cell-based, human; conditions: necrostatin-1 60 μM, t test p<0.05
Description: In order to determine the cell-killing mechanism of 1 and 2, cytotoxicity studies in the presence of apoptosis and necrosis inhibitors were conducted. […] The possibility that 1 and 2 induce necroptosis was then investigated. Necroptosis is a well-regulated mode of cell death that is different from unregulated necrosis and apoptosis. Unlike unregulated necrosis, which can be induced by H2O2 or heat, necroptosis generally involved the interaction of protein kinases, RIP1 and RIP3, to initiate cell disintegration. This process can be blocked by necrostatin-1, a potent RIP1 kinase inhibitor. To determine whether 1 and 2 induced necroptosis and/or uncontrolled necrosis, cytotoxicity studies were conducted in the presence of necrostatin-1 (60 μM) and IM-54 (10 μM), an inhibitor of H2O2-induced necrosis. […] Therefore, 1- and 2-induced cell death relies on RIP1-RIP3 complex formation and not on the expression levels of the individual protein kinases. RIP1 can also form a cytosolic complex with Fas-associated death domain (FADD) and caspase 8, known as a ripoptosome, to initiate apoptosis (through caspase 8 cleavage).
Cytotoxicity MTT Assay. […] Cells (2×10^3 cells/well) were seeded in a 96-well plate. […] The absorbance of the solution wells was read at 550 nm. Absorbance values were normalized to DMSO-containing control wells and plotted as the concentration of test compound versus % cell viability. […]

[3] = system: DU 145 (prostate carcinoma); test: MTT cytotoxicity assay, DU 145 cells; type: cell-based, human; conditions: Table 2; cisplatin-resistant cell line; 72 h exposure; read-out: IC50 DU 14S prostate carcinoma
U2OS = test: MTT cytotoxicity assay, U2OS cells; type: cell-based, human
A549 cells [4] = test: MTT cytotoxicity assay, A549 cells; type: cell-based, human
Description: In vitro toxicity of the rhenium (v) oxo complexes, 1 and 2 towards a panel of human cell lines was determined using the colorimetic MTT [[3-(4,5-dimethylithiazol-2-yl)-2,5-diphenyltetrazolium bromide] assay.
The in vitro effect of rhenium(V) oxo complexes 1 and 2 toward a panel of human cell lines was determined by the colorimetric MTT [3-(4,5-dimethylthiazol-2-yl)-2,5-diphenyltetrazolium bromide] assay. […] The IC50 values, or concentration required to induce 50% cell death, were derived from dose—response curves and are summarized in Table 1.
Cells (2×10^3 cells/well) were seeded in a 96-well plate. […] 1 and 2 were prepared as 10 mM solutions in DMSO and diluted using media. The final concentration of DMSO in each well was 0.5%, and this amount was also present in the untreated control. After 72 h, the medium was removed, 200 μL of a 0.4 mg/mL solution of MTT in DMEM, RPMI, or McCoy's 5A was added, and the plate was incubated for an additional 1-2 h. The DMEM/MTT, RPMI/MTT, or McCoy's 5A/MTT mixture was aspirated, and 200 μL of DMSO was added to dissolve the resulting purple formazan crystals. The absorbance of the solution wells was read at 550 nm. Absorbance values were normalized to DMSO-containing control wells and plotted as the concentration of test compound versus % cell viability. IC50 values were interpolated from the resulting dose-dependent curves. The reported IC50 values are the average from at least three independent experiments, each of which consisted of six replicates per concentration level.

A549 cells [5] = test: Cytotoxicity in the presence of cell death inhibitors, A549 cells; type: cell-based, human; conditions: for effect of co-treatment with IM-54 on toxicity: IM-54 10 μM, FIG. 1B; for effect of co-incubation with necrostatin-1 on toxicity, A549: necrostatin-1 60 μM, t test p<0.05, FIG. 1B
Description: In order to determine the cell-killing mechanism of 1 and 2, cytotoxicity studies in the presence of apoptosis and necrosis inhibitors were conducted. […] The possibility that 1 and 2 induce necroptosis was then investigated. […] To determine whether 1 and 2 induced necroptosis and/or uncontrolled necrosis, cytotoxicity studies were conducted in the presence of necrostatin-1 (60 μM) and IM-54 (10 μM), an inhibitor of H2O2-induced necrosis.
Cytotoxicity MTT Assay. […] Cells (2×10^3 cells/well) were seeded in a 96-well plate. […] 1 and 2 were prepared as 10 mM solutions in DMSO and diluted using media. The final concentration of DMSO in each well was 0.5%, and this amount was also present in the untreated control. After 72 h, the medium was removed, 200 μL of a 0.4 mg/mL solution of MTT in DMEM, RPMI, or McCoy's 5A was added, and the plate was incubated for an additional 1-2 h. The DMEM/MTT, RPMI/MTT, or McCoy's 5A/MTT mixture was aspirated, and 200 μL of DMSO was added to dissolve the resulting purple formazan crystals. The absorbance of the solution wells was read at 550 nm. Absorbance values were normalized to DMSO-containing control wells and plotted as the concentration of test compound versus % cell viability. IC50 values were interpolated from the resulting dose-dependent curves. The reported IC50 values are the average from at least three independent experiments, each of which consisted of six replicates per concentration level.
For specific cell death inhibitor assays, inhibitors of necroptosis (necrostatin-1, 60 μM), H2O2-induced necrosis (IM-54, 10 μM), and apoptosis (v-VAD-FMK, 5 μM) were added to cells and incubated for 1 h prior to treatment with the test compounds.

[6] = Table 1, 72 h exposure, ± standard deviation, read-out: IC50 U2OS bone osteosarcoma
[7] = Table A, average of three independent determinations, read-out: IC50 U2OS (bone)
[8] = Table 1, 72 h exposure, ± standard deviation, read-out: IC50 A549 lung carcinoma
[9] = Table A, average of three independent determinations, read-out: IC50 A549 (lung)

Compound	PI uptake versus untreated control cells (A549 cells [1])	effect of N-acetylcysteine pretreatment on induced PI uptake (A549 cells [1])	effect of necrostatin-1 on mediated PI uptake (A549 cells [1])	IC50 in MEFs PARP-1+/+ compared with MEFs PARP-1−/− [2]	effect of co-incubation with necrostatin-1 on toxicity, PC-3 (PC-3)	IC50 [3]	IC50 (U2OS; [6])	IC50 (U2OS; [7])	IC50 (A549 cells [4]; [8])	IC50 (A549 cells [4]; [9])	higher toxicity for lung carcinoma A549 cells than cisplatin (A549 cells [4]; ratio to cisplatin, Example 1)	effect of co-treatment with IM-54 on toxicity (A549 cells [5])	effect of co-incubation with necrostatin-1 on toxicity, A549 (A549 cells [5])
C[O][Re](=[O])([Cl])[Cl].c1ccc(-c2ccnc3c2ccc2c(-c4ccccc4)ccnc23)cc1 [Compound 1, [ReO(OMe)(4,7-diphenyl-1,10-phenanthroline)-Cl2]]	higher PI uptake	significantly decreased	could block	similar	markedly decreased the toxicity	2840 ± 381 nM	274 ± 6 nM	274 ± 6 nM	207 ± 4 nM	207 ± 4 nM	37 fold	did not significantly affect the toxicity	markedly decreased the toxicity
C[O][Re-2]1(=[O])([Cl])([Cl])[n+]2cc(C)c(C)c3ccc4c(C)c(C)c[n+]1c4c32 [Compound 2, [ReO(OMe)(3,4,7,8-tetramethyl-1,10-phenanthroline)Cl2]]	higher PI uptake	significantly decreased	could block	similar	markedly decreased the toxicity	1370 ± 84 nM	209 ± 31 nM	209 ± 31 nM	157 ± 15 nM	73 ± 3 nM	–	did not significantly affect the toxicity	markedly decreased the toxicity
